Results: ChEMBL document CHEMBL5214912, “Design, synthesis, and SAR study of novel 4,5-dihydropyrazole-Thiazole derivatives with anti-inflammatory activities for the treatment of sepsis” (Eur J Med Chem, 2021)
Activity calls are given as the source filed them. No cut-off for these calls is given here.

Assays:
[1] = tested on: RAW264.7; test: Inhibition of LPS-induced NO production in mouse RAW264.7 cells at 1 uM pre-incubated for 1 hrs followed by LPS stimulation and measured after 24 hrs; type: functional, cell-based; conditions: time 25.0 hrs
[2] = tested on: Mus musculus; test: Antiinflammatory activity in LPS-induced sepsis in C57BL/6J mouse model assessed as reduction in serum AST level at 7 mg/kg,IG administrated for 72 hrs followed by LPS stimulation and measured after 12 hrs; type: functional, organism-based; conditions: time 84.0 hrs
[3] = tested on: Mus musculus; test: Antiinflammatory activity in LPS-induced sepsis in C57BL/6J mouse model assessed as reduction in morphological changes in heart at 7 mg/kg,IG administrated for 72 hrs followed by LPS stimulation and measured after 12 hrs by H and E staining method; type: functional, organism-based; conditions: time 84.0 hrs
[4] = tested on: Mus musculus; test: Antiinflammatory activity in LPS-induced sepsis in C57BL/6J mouse model assessed as reduction in serum Urea nitrogen level at 7 mg/kg,IG administrated for 72 hrs followed by LPS stimulation and measured after 12 hrs; type: functional, organism-based; conditions: time 84.0 hrs
[5] = Toxicity in LPS-induced sepsis in C57BL/6J mouse model assessed as decrease in ratio of spleen weight to body weight at 7 mg/kg,IG administrated for 72 hrs followed by LPS stimulation and measured after 12 hrs; type: organism-based; conditions: in vivo, po, 84 h
[6] = tested on: RAW264.7; test: Antiinflammatory activity in mouse RAW264.7 cells assessed as reduction in LPS-induced iNOS protein expression at 2.5 to 10 uM pre-incubated for 1 hrs followed by LPS stimulation and measured after 24 hrs by western blotting method; type: functional, cell-based; conditions: dose 2.5-10 µM, time 25.0 hrs
[7] = tested on: RAW264.7; test: Antiinflammatory activity in mouse RAW264.7 cells assessed as reduction in LPS-induced NF-kappaB phosphorylation at 2.5 to 10 uM pre-incubated for 1 hrs followed by LPS stimulation and measured after 24 hrs by immunofluorescence staining assay; type: functional, cell-based; conditions: dose 2.5-10 µM, time 25.0 hrs
[8] = tested on: Mus musculus; test: Antiinflammatory activity in LPS-induced sepsis in C57BL/6J mouse model assessed as reduction in serum AST level at 14 mg/kg,IG administrated for 72 hrs followed by LPS stimulation and measured after 12 hrs; type: functional, organism-based; conditions: time 84.0 hrs
[9] = tested on: Mus musculus; test: Antiinflammatory activity in LPS-induced sepsis in C57BL/6J mouse model assessed as reduction in morphological changes in spleen at 7 mg/kg,IG administrated for 72 hrs followed by LPS stimulation and measured after 12 hrs by H and E staining method; type: functional, organism-based; conditions: time 84.0 hrs
[10] = tested on: RAW264.7; test: Antiinflammatory activity in mouse RAW264.7 cells assessed as inhibition of LPS-induced NO production at 2.5 to 10 uM pre-incubated for 1 hrs followed by LPS stimulation and measured after 24 hrs; type: functional, cell-based; conditions: dose 2.5-10 µM, time 25.0 hrs, DDE = dose-dependent effect
[11] = tested on: Mus musculus; test: Antiinflammatory activity in LPS-induced sepsis in C57BL/6J mouse model assessed as reduction in serum HBDH level at 14 mg/kg,IG administrated for 72 hrs followed by LPS stimulation and measured after 12 hrs; type: functional, organism-based; conditions: time 84.0 hrs
[12] = tested on: RAW264.7; test: Antiinflammatory activity in mouse RAW264.7 cells assessed as reduction in LPS-induced p38 phosphorylation at 2.5 to 10 uM pre-incubated for 1 hrs followed by LPS stimulation and measured after 24 hrs by western blotting method; type: functional, cell-based; conditions: dose 2.5-10 µM, time 25.0 hrs, DDE = dose-dependent effect
[13] = Toxicity in LPS-induced sepsis in C57BL/6J mouse model assessed as decrease in ratio of kidney weight to body weight at 7 mg/kg,IG administrated for 72 hrs followed by LPS stimulation and measured after 12 hrs; type: organism-based; conditions: in vivo, po, 84 h
[14] = tested on: Mus musculus; test: Antiinflammatory activity in LPS-induced sepsis in C57BL/6J mouse model assessed as reduction in morphological changes in kidney at 7 mg/kg,IG administrated for 72 hrs followed by LPS stimulation and measured after 12 hrs by H and E staining method; type: functional, organism-based; conditions: time 84.0 hrs
[15] = Toxicity in LPS-induced sepsis in C57BL/6J mouse model assessed as decrease in ratio of heart weight to body weight at 14 mg/kg,IG administrated for 72 hrs followed by LPS stimulation and measured after 12 hrs; type: organism-based; conditions: in vivo, po, 84 h
[16] = tested on: RAW264.7; test: Antiinflammatory activity in mouse RAW264.7 cells assessed as reduction in LPS-induced ERK phosphorylation at 2.5 to 10 uM pre-incubated for 1 hrs followed by LPS stimulation and measured after 24 hrs by western blotting method; type: functional, cell-based; conditions: dose 2.5-10 µM, time 25.0 hrs, DDE = dose-dependent effect
[17] = tested on: Mus musculus; test: Antiinflammatory activity in LPS-induced sepsis in C57BL/6J mouse model assessed as reduction in morphological changes in heart at 14 mg/kg,IG administrated for 72 hrs followed by LPS stimulation and measured after 12 hrs by H and E staining method; type: functional, organism-based; conditions: time 84.0 hrs
[18] = Toxicity in LPS-induced sepsis in C57BL/6J mouse model assessed as decrease in ratio of heart weight to body weight at 7 mg/kg,IG administrated for 72 hrs followed by LPS stimulation and measured after 12 hrs; type: organism-based; conditions: in vivo, po, 84 h
[19] = tested on: RAW264.7; test: Antiinflammatory activity in mouse RAW264.7 cells assessed as reduction in LPS-induced COX-2 protein expression at 2.5 to 10 uM pre-incubated for 1 hrs followed by LPS stimulation and measured after 24 hrs by western blotting method; type: functional, cell-based; conditions: dose 2.5-10 µM, time 25.0 hrs
[20] = Toxicity in LPS-induced sepsis in C57BL/6J mouse model assessed as decrease in ratio of spleen weight to body weight at 14 mg/kg,IG administrated for 72 hrs followed by LPS stimulation and measured after 12 hrs; type: organism-based; conditions: in vivo, po, 84 h
[21] = tested on: Mus musculus; test: Antiinflammatory activity in LPS-induced sepsis in C57BL/6J mouse model assessed as reduction in serum Urea nitrogen level at 14 mg/kg,IG administrated for 72 hrs followed by LPS stimulation and measured after 12 hrs; type: functional, organism-based; conditions: time 84.0 hrs
[22] = tested on: Mus musculus; test: Antiinflammatory activity in LPS-induced sepsis in C57BL/6J mouse model assessed as reduction in morphological changes in spleen at 14 mg/kg,IG administrated for 72 hrs followed by LPS stimulation and measured after 12 hrs by H and E staining method; type: functional, organism-based; conditions: time 84.0 hrs
[23] = tested on: Mus musculus; test: Antiinflammatory activity in LPS-induced sepsis in C57BL/6J mouse model assessed as reduction in inflammatory cell infiltration in liver at 14 mg/kg,IG administrated for 72 hrs followed by LPS stimulation and measured after 12 hrs by H and E staining method; type: functional, organism-based; conditions: time 84.0 hrs
[24] = tested on: RAW264.7; test: Antiinflammatory activity in mouse RAW264.7 cells assessed as reduction in LPS-induced JNK phosphorylation at 2.5 to 10 uM pre-incubated for 1 hrs followed by LPS stimulation and measured after 24 hrs by western blotting method; type: functional, cell-based; conditions: dose 2.5-10 µM, time 25.0 hrs, DDE = dose-dependent effect
[25] = Toxicity in LPS-induced sepsis in C57BL/6J mouse model assessed as decrease in ratio of kidney weight to body weight at 14 mg/kg,IG administrated for 72 hrs followed by LPS stimulation and measured after 12 hrs; type: organism-based; conditions: in vivo, po, 84 h
[26] = tested on: Mus musculus; test: Antiinflammatory activity in LPS-induced sepsis in C57BL/6J mouse model assessed as reduction in serum LDH level at 14 mg/kg,IG administrated for 72 hrs followed by LPS stimulation and measured after 12 hrs; type: functional, organism-based; conditions: time 84.0 hrs
[27] = tested on: Mus musculus; test: Antiinflammatory activity in LPS-induced sepsis in C57BL/6J mouse model assessed as reduction in serum creatinine level at 14 mg/kg,IG administrated for 72 hrs followed by LPS stimulation and measured after 12 hrs; type: functional, organism-based; conditions: time 84.0 hrs
[28] = tested on: Mus musculus; test: Antiinflammatory activity in LPS-induced sepsis in C57BL/6J mouse model assessed as reduction in serum LDH level at 7 mg/kg,IG administrated for 72 hrs followed by LPS stimulation and measured after 12 hrs; type: functional, organism-based; conditions: time 84.0 hrs
[29] = tested on: RAW264.7; test: Antiinflammatory activity in mouse RAW264.7 cells assessed as reduction in LPS-induced IL-1beta mRNA expression at 2.5 to 10 uM pre-incubated for 1 hrs followed by LPS stimulation and measured after 24 hrs by qRT-PCR assay; type: functional, cell-based; conditions: dose 2.5-10 µM, time 25.0 hrs, DDE = dose-dependent effect
[30] = tested on: Mus musculus; test: Antiinflammatory activity in LPS-induced sepsis in C57BL/6J mouse model assessed as reduction in morphological changes in kidney at 14 mg/kg,IG administrated for 72 hrs followed by LPS stimulation and measured after 12 hrs by H and E staining method; type: functional, organism-based; conditions: time 84.0 hrs
[31] = tested on: Mus musculus; test: Antiinflammatory activity in LPS-induced sepsis in C57BL/6J mouse model assessed as reduction in inflammatory cell infiltration in liver at 7 mg/kg,IG administrated for 72 hrs followed by LPS stimulation and measured after 12 hrs by H and E staining method; type: functional, organism-based; conditions: time 84.0 hrs
[32] = tested on: Mus musculus; test: Antiinflammatory activity in LPS-induced sepsis in C57BL/6J mouse model assessed as reduction in serum HBDH level at 7 mg/kg,IG administrated for 72 hrs followed by LPS stimulation and measured after 12 hrs; type: functional, organism-based; conditions: time 84.0 hrs
[33] = tested on: Mus musculus; test: Antiinflammatory activity in LPS-induced sepsis in C57BL/6J mouse model assessed as reduction in serum creatinine level at 7 mg/kg,IG administrated for 72 hrs followed by LPS stimulation and measured after 12 hrs; type: functional, organism-based; conditions: time 84.0 hrs
[34] = tested on: RAW264.7; test: Inhibition of LPS-induced NO production in mouse RAW264.7 cells at 10 uM pre-incubated for 1 hrs followed by LPS stimulation and measured after 24 hrs; type: functional, cell-based; conditions: time 25.0 hrs
[35] = tested on: RAW264.7; test: Antiinflammatory activity in mouse RAW264.7 cells assessed as reduction in LPS-induced TNF-alpha mRNA expression at 2.5 to 10 uM pre-incubated for 1 hrs followed by LPS stimulation and measured after 24 hrs by qRT-PCR assay; type: functional, cell-based; conditions: dose 2.5-10 µM, time 25.0 hrs, DDE = dose-dependent effect

Cc1csc(N2N=C(c3ccc(F)cc3)CC2c2ccc(Br)cc2)n1 (centres undefined)
inhibition [1]: Active

Cc1csc(N2N=C(c3ccccc3Br)CC2c2ccc(Br)cc2)n1 (centres undefined)
inhibition [1]: Active

COc1ccc(C2=NN(c3nc(C)cs3)C(c3ccc(C)cc3)C2)cc1 (centres undefined)
inhibition [1]: Active

COc1ccccc1C1=NN(c2nc(C)cs2)C(c2ccc(Br)cc2)C1 (centres undefined)
inhibition [1]: Active

COc1ccccc1C1=NN(c2nc(C)cs2)C(c2ccc(C)cc2)C1 (centres undefined)
inhibition [1]: Active

COc1ccc(C2=NN(c3nc(C)cs3)C(c3ccc(Br)cc3)C2)cc1 (centres undefined)
inhibition [1]: Active

COc1ccccc1C1=NN(c2nc(C)cs2)C(c2ccccc2C)C1 (centres undefined)
Activity [2]: Active | Activity [3]: Active | Activity [4]: Active | Activity [5]: Non-Toxic | Activity [6]: Active | Activity [7]: Active | Activity [8]: Active | Activity [9]: Active | Activity [10]: Dde | Activity [11]: Active | Activity [12]: Dde | Activity [13]: Non-Toxic | Activity [14]: Active | Activity [15]: Non-Toxic | Activity [16]: Dde | Activity [17]: Active | Activity [18]: Non-Toxic | Activity [19]: Active | Activity [20]: Non-Toxic | Activity [21]: Active | Activity [22]: Active | Activity [23]: Active | inhibition [1]: Active | Activity [24]: Dde | Activity [25]: Non-Toxic | Activity [26]: Active | Activity [27]: Active | Activity [28]: Active | Activity [29]: Dde | Activity [30]: Active | Activity [31]: Active | Activity [32]: Active | Activity [33]: Active | inhibition [34]: Active | Activity [35]: Dde

COc1ccccc1C1=NN(c2nc(C)cs2)C(c2cc(OC)c(OC)c(OC)c2)C1 (centres undefined)
inhibition [1]: Active

COc1ccc(C2=NN(c3nc(C)cs3)C(c3cc(OC)c(OC)c(OC)c3)C2)cc1 (centres undefined)
inhibition [1]: Active

Cc1ccc(C2CC(c3ccccc3Br)=NN2c2nc(C)cs2)cc1 (centres undefined)
inhibition [1]: Active
